# Source: publication PMC11678425, “(-)-Syringaresinol Exerts an Antidepressant-like Activity in Mice by Noncompetitive Inhibition of the Serotonin Transporter” (Pharmaceuticals, 2024)
# Key:
# [1] = test system: CUMS mice; assay: Novelty suppressed feeding test (NSFT) in CUMS mice; type: in vivo, mouse; details: 10 mg/kg, i.p., 2 weeks
# Method: (§1) C57BL/6 adult (6–8 weeks, body weight, 18–22 g) male mice were maintained and handled in a standard condition at the Experimental Animal Center of Southern Medical University (Guangzhou, China). Animal use was approved by the Animal Use and Care Committee of Southern Medical University (approved code: SMUL2021177, approved date: 12 December 2021). The CUMS procedure was carried out according to a protocol described previously. Except for those in the control group, mice were randomly exposed to two mild unpredictable stressors per day for 3 weeks. The stressors included water deprivation, restraint, tilted cage, wet/no bedding, rotation, peppermint, noise, and inverted light off/on. Mice in the control group were group housed without any stressors throughout the procedure. […] NSFT was performed after 16 h food deprivation, as described previously. The mouse was placed in an open field (24 × 40 × 14 cm), where a new chow was put in the center, and the latency time to bite food was counted over 10 min. Home cage feeding within a 20 min period was measured after the test. FST was carried out according to a protocol described previously. The mouse was placed into a beaker (Bomex, Beijing, China) with a height of 18 cm filled with water (22 ± 1 °C) for 6 min. The immobile time was measured during minutes 2–6. TST was performed according to a previous description. The mouse was suspended from a hook that hung from a suspension bar by placing a piece of adhesive tape on its tail about 1 cm away from the tip. The immobile time during minutes 2–6 was measured.
# [2] = test system: BDNF, PSD-95, GluA1, and vGluT1; assay: Immunoblot of synaptic proteins in hippocampus of CUMS mice; type: in vivo, mouse; details: same dosage as fluoxetine (10 mg/kg i.p.)
# From the text: (§2) Figure 8 SYR effects on the expression of c-Fos and synaptic proteins in the hippocampus. (A) Representative immunohistochemical images of c-Fos expression in the hippocampus with the indicated treatments. (B) Quantitative analysis for hippocampal c-Fos expression with various treatments. Protein expression level is expressed as a percentage of c-Fos fluorescence measured in the control group. Bars represent the mean ± SEM (n = 4). ** p < 0.01 compared with the control or CUMS group by one-way ANOVA followed by post hoc tests. (C) Representative immunoblots of the synaptic proteins BDNF, PSD-95, GluA1, and vGluT1 with various treatments. (D–G) Quantification of the expression of synaptic proteins BDNF (D), PSD-95 (E), GluA1 (F), and vGluT1 (G). The expression level is expressed as a percentage of the integrated density obtained from the control group. Bars represent the mean ± SEM (n = 4). * p < 0.05, ** p < 0.01 by one-way ANOVA followed by post hoc tests.
# Synaptic proteins were extracted from mPFC or hippocampus tissues using RIPA lysis buffer, respectively. Expression of the indicated proteins under various treatments was then analyzed by immunoblotting, as previously reported. […] Quantification of immunoreactive protein bands was performed using Image J v1.53u, and GAPDH was used as an internal reference to normalize expression levels of those proteins, respectively.
# [3] = test system: CUMS mice; assay: Home cage food consumption after NSFT; type: in vivo, mouse; details: all tested dosages, in comparison with the control group
# Method: Figure 6 Animal behavioral tests. (A) Schematic illustration of animal behavioral test timeline. Mice were exposed to CUMS for 3 weeks, as described in Section 4. […] For the CUMS group, saline was given instead of drugs. NSFT was performed after 16–18 h food deprivation, followed by FST and TST. (B) NSFT. The latency time to food in NSFT was counted. (C) Home cage food consumption. Food consumed by individual mice in the home cage (g) within a 20 min period was measured after NSFT. (D) FST. The immobility time during a 2 to 6 min period in FST was measured. (E) TST. The immobility time during 2 to 6 min was counted. n = 8–10 mice/group. Bars represent the mean ± SEM. * p < 0.05 compared with the control or CUMS group, respectively, by one-way ANOVA followed by post hoc tests. ns, not significant.
# NSFT was performed after 16 h food deprivation, as described previously. The mouse was placed in an open field (24 × 40 × 14 cm), where a new chow was put in the center, and the latency time to bite food was counted over 10 min. Home cage feeding within a 20 min period was measured after the test. FST was carried out according to a protocol described previously. The mouse was placed into a beaker (Bomex, Beijing, China) with a height of 18 cm filled with water (22 ± 1 °C) for 6 min. The immobile time was measured during minutes 2–6. […] The immobile time during minutes 2–6 was measured.
# [4] = test system: c-Fos; assay: c-Fos immunohistochemistry in mPFC of CUMS mice; type: in vivo, mouse; details: 10 mg/kg i.p.
# Method: Figure 7 SYR effects on the expression of c-Fos and synaptic proteins in mPFC. (A) Representative immunohistochemical images of c-Fos expression in mPFC under the indicated treatments. Immunohistochemistry of c-Fos was performed with mPFC slices as described in Section 4. The slices were re-probed with anti-DAPI antibody. Immunofluorescence images for c-Fos (green) and DAPI (blue) were acquired by confocal microscopy. (B) Quantitative analysis for c-Fos expression in mPFC with various treatments. Protein expression is expressed as a percentage of c-Fos fluorescence measured in the control group. Bars represent the mean ± SEM (n = 4). * p < 0.05, ** p < 0.01 compared with the control or CUMS group by one-way ANOVA followed by post hoc tests, respectively. (C) Representative immunoblots of the synaptic proteins BDNF, PSD-95, GluA1, and vGluT1 with various treatments. (D–G) Quantification of the expression of the synaptic proteins BDNF (D), PSD-95 (E), GluA1 (F), and vGluT1 (G). The expression level is expressed as a percentage of the integrated density obtained from the control group. Bars represent the mean ± SEM (n = 4). * p < 0.05, ** p < 0.01 by one-way ANOVA followed by post hoc tests.
# Mouse mPFC and hippocampal slices were prepared as previously described. […]
# [5] = test system: CUMS mice; details: all tested dosages, i.p.
# [6] = Daily body weight during drug administration; details: all tested dosages, 14-day administration, in comparison with the control group
# [7] = test system: CUMS mice; assay: Tail suspension test (TST) in CUMS mice; type: in vivo, mouse; details: 10 mg/kg, i.p., 2 weeks
# Method: as §1
# [8] = test system: CUMS mice; assay: Forced swim test (FST) in CUMS mice; type: in vivo, mouse; details: 10 mg/kg, i.p., 2 weeks
# Method: as §1
# [9] = test system: c-Fos; assay: c-Fos immunohistochemistry in hippocampus of CUMS mice; type: in vivo, mouse; details: same dosage as fluoxetine (10 mg/kg i.p.)
# From the text: as §2
# Mouse mPFC and hippocampal slices were prepared as previously described. Briefly, mice were deeply anesthetized with 4% pentobarbital sodium (Sigma-Aldrich, Saint Louis, MI, USA), and perfused transcardially with PBS, followed by 4% phosphate-buffered paraformaldehyde. […]
smiles,measurement,setting,value
"CNCCC(Oc1ccc(C(F)(F)F)cc1)c1ccccc1 (stereo not drawn) [fluoxetine, reference compound]",CUMS-induced increase in latency to food in NSFT,[1],remarkably alleviated
same,CUMS-induced decrease in expression of synaptic proteins in the hippocampus,[2],effectively alleviate
same,home cage food consumption,[3],little effect
same,CUMS-induced decrease in expression of c-Fos in mPFC,[4],reversed
same,fatality rate,[5],zero fatality rate
same,daily body weight changes,[6],little effect
same,CUMS-induced increase in immobility in TST,[7],remarkably alleviated
same,CUMS-induced increase in immobility in FST,[8],remarkably alleviated
same,CUMS-induced decrease in expression of c-Fos in the hippocampus,[9],effectively alleviate
